Reference: patent publication US20230158155A1, “Cell Surface Receptor Binding Compounds and Conjugates” (priority 2020, published 2023)
Where two headings read alike, the source gives them in different places.

Experiments:
[1] = molecular target: T1, recombinant human CI-M6PR protein (Homo sapiens, UniProt P11717); experiment: Human CI-M6PR binding assay (ELISA); conditions: for EC50: antibody conjugate; for binding affinity for M6PR, rank among the conjugates tested: matuzumab conjugates, ELISA, FIGS. 19A-19F
T1 construct: purchased R&D 6418-GR-050
Experimental: Nunc black solid bottom MaxiSorp plates were allowed to incubate overnight at 4° C. coated with […] of recombinant human CI-M6PR protein (R&D, 6418-GR-050) in 50 μL PBS. The next day, coating was decanted and plates were washed 3× with PBS. Wells were blocked with 350 μL of 3% BSA-PBS for 1 hour at room temperature. […] 50 μL of diluted conjugates were added to the plate and allowed to incubate at room temperature for 2 hours. After incubation, solutions in plate were decanted and washed with 350 μL of 0.05% PBS-Tween20 three times, drying the plate each wash on a clean paper towel. 50 μL of peroxidase AffiniPure Mouse Anti-Human IgG (Jackson Immuno, 209-035-088) diluted in 3% BSA-PBS to […] was added to the plate and allowed to incubate for 1 hour at room temperature in the dark. After incubation, solutions in plate were decanted and washed with 350 μL of 0.05% PBS-Tween20 3 times, drying the plate each wash on a clean paper towel. […] 50 μL of QuantaBlu solution was added to wells and allowed to incubate for 5-10 minutes at room temperature. After incubation, plates were read on a Perkin Elmer EnVision using photometric 340 and Umbelliferone 460 filter sets for excitation and emission, respectively. Data analysis and non-linear curve-fitting was performed using GraphPad Prism.

Jurkat cells = experiment: Conjugate-mediated uptake of IgG2a-Alexa488 into Jurkat cells (flow cytometry); assay type: cell-based; conditions: one hour incubation, FIG. 24
Experimental: The anti-IgG2a conjugates were bound to IgG2a-Alexa488, as follows: equal molar ratios of anti-IgG2a and IgG2a-Alexa488 were added in tissue culture media for 30 minutes at room temperature. The resulting anti-IgG2a:IgG2a antibody-Alexa488 compositions were added to Jurkat cells (100 k cells/50 ul per well, n=2), and Alexa488 fluorescence levels were measured (via Alexa488 measurement) at 1 hour and 24 hours by flow cytometry. Because Alexa488 accumulates in cells, this presents a way to measure total intracellular uptake by cells over time.

Hep G2 cells = experiment: Conjugate-mediated uptake of IgG2a into HepG2 cells; assay type: cell-based, human; conditions: one hour incubation, FIG. 25; average loading (816), DAR4 (817), DAR4 (520)
Experimental: The uptake of antibody conjugates of exemplary M6PR or ASGPR binding compounds was assessed in Hep G2 cells, using a method similar to that described in Example 79.

[2] = average loading DAR 9.5, FIG. 23, read-out: EC50 (nM) in M6PR binding assay
[3] = average loading DAR 9, FIG. 23, read-out: EC50 (nM) in M6PR binding assay

O=C(NCCCCc1cn(CCOCCOCCOCCOCCC(=O)Oc2c(F)c(F)c(F)c(F)c2F)nn1)Nc1ccc(O[C@H]2O[C@H](CCP(=O)(O)O)[C@@H](O)[C@H](O)[C@@H]2O)cc1 [529 (I-38)] was tested, and the EC50 [1, 2] was 0.194 nM.

For C[C@H](NC(=O)CCCn1cc(CCCCNC(=S)Nc2ccc(O[C@H]3O[C@H](CCP(=O)(O)O)[C@@H](O)[C@H](O)[C@@H]3O)cc2)nn1)C(=O)N[C@@H](C)C(=O)N[C@@H](C)C(=O)NCCOCCOCCOCCOCCC(=O)Oc1c(F)c(F)c(F)c(F)c1F [528 (I-51)], the “uptake into Jurkat cells, average loading DAR9 versus lower average loading DAR2” value (Jurkat cells) was “greater uptake”, the EC50 ([1]; EC50 (nM) in M6PR binding assay, additional M6PR binding assays, average loading DAR 2) was 4.44 nM and the EC50 ([1]; EC50 (nM) in M6PR binding assay, additional M6PR binding assays, average loading DAR 8) was 0.301 nM. The EC50 ([1]; EC50 (nM) in M6PR binding assay, average loading DAR 9.5, FIG. 23) was 0.199 nM.

For O=C(CCCn1cc(CCCCNC(=S)Nc2ccc(O[C@H]3O[C@H](CCP(=O)(O)O)[C@@H](O)[C@H](O)[C@@H]3O)cc2)nn1)N[C@@H](CCCCn1cc(CCCCNC(=S)Nc2ccc(O[C@H]3O[C@H](CCP(=O)(O)O)[C@@H](O)[C@H](O)[C@@H]3O)cc2)nn1)C(=O)N[C@@H](CCCCn1cc(CCCCNC(=S)Nc2ccc(O[C@H]3O[C@H](CCP(=O)(O)O)[C@@H](O)[C@H](O)[C@@H]3O)cc2)nn1)C(=O)N[C@@H](CCCCn1cc(CCCCNC(=S)Nc2ccc(O[C@H]3O[C@H](CCP(=O)(O)O)[C@@H](O)[C@H](O)[C@@H]3O)cc2)nn1)C(=O)NCCOCCOCCOCCOCCC(=O)Oc1c(F)c(F)c(F)c(F)c1F [728 (I-52)], the EC50 ([1]; additional M6PR binding assays, average loading DAR 6, read-out: EC50 (nM) in M6PR binding assay) was 0.28 nM.

O=C(CCOCCn1cc(COCCOCCOCCNC(=S)Nc2ccc(O[C@H]3O[C@H](CCP(=O)(O)O)[C@@H](O)[C@H](O)[C@@H]3O)cc2)nn1)Oc1c(F)c(F)c(F)c(F)c1F [522 (I-49)] was tested, and the EC50 ([1]; average loading DAR 11, FIG. 23, read-out: EC50 (nM) in M6PR binding assay) was 0.227 nM.

With CC(=O)N[C@H]1[C@H](OCCCCC(=O)NCCCNC(=O)CCOCC(COCCC(=O)NCCCNC(=O)CCCCO[C@@H]2O[C@H](CO)[C@H](O)[C@H](O)[C@H]2NC(C)=O)(COCCC(=O)NCCCNC(=O)CCCCO[C@@H]2O[C@H](CO)[C@H](O)[C@H](O)[C@H]2NC(C)=O)NC(=O)CCCCCCCCCCCN2C(=O)C=CC2=O)O[C@H](CO)[C@H](O)[C@@H]1O [817 (ASGPR compound I-123), N-[1,3-bis(2-{[3-(5-{[(2R,3R,4R,5R,6R)-3-acetamido-4,5-dihydroxy-6-(hydroxymethyl)oxanyl]oxy}pentanamido)propyl]carbamoyl}ethoxy)-2-[(2-{[3-(5-{[(2R,3R,4R,5R,6R)acetamido-4,5-dihydroxy-6-(hydroxymethyl)oxanyl]oxy}pentanamido)propyl]carbamoyl}ethoxy)methyl]propan-2-yl]-12-(2,5-dioxo-2,5-dihydro-1H-pyrrol-1-yl)dodecanamide] the “uptake into HepG2 cells (cell fluorescence versus conjugate concentration)” value (Hep G2 cells) was “comparable HepG2 cellular uptake”.

O=C(CCOCCOCCOCCOCCn1cc(CCCCNC(=S)Nc2ccc(O[C@H]3O[C@H](CCP(=O)(O)O)[C@@H](O)[C@H](O)[C@@H]3O)cc2)nn1)Oc1c(F)c(F)c(F)c(F)c1F [520 (I-7)] showed an EC50 ([1]; additional M6PR binding assays, average loading DAR 4, read-out: EC50 (nM) in M6PR binding assay) of 0.412 nM, an EC50 ([1]; average loading DAR 2, FIG. 23, read-out: EC50 (nM) in M6PR binding assay) of 2.6 nM and an EC50 ([1]; average loading DAR 4, FIG. 23, read-out: EC50 (nM) in M6PR binding assay) of 0.221 nM. The EC50 [1, 3] was 0.217 nM and the “uptake into HepG2 cells (cell fluorescence versus conjugate concentration)” value (Hep G2 cells) was “comparable HepG2 cellular uptake”.

For CC(=O)N[C@H]1[C@H](OCCCCC(=O)NCCCNC(=O)CCOCC(COCCC(=O)NCCCNC(=O)CCCCO[C@@H]2O[C@H](CO)[C@H](O)[C@H](O)[C@H]2NC(C)=O)(COCCC(=O)NCCCNC(=O)CCCCO[C@@H]2O[C@H](CO)[C@H](O)[C@H](O)[C@H]2NC(C)=O)NC(=O)CCCCCCCCCCC(=O)Oc2c(F)c(F)c(F)c(F)c2F)O[C@H](CO)[C@H](O)[C@@H]1O [816 (ASGPR compound I-124)], the “uptake into HepG2 cells (cell fluorescence versus conjugate concentration)” value (Hep G2 cells) was “comparable HepG2 cellular uptake”.

In the case of O=C(CCOCCn1cc(CCCCNC(=S)Nc2ccc(O[C@H]3O[C@H](CCP(=O)(O)O)[C@@H](O)[C@H](O)[C@@H]3O)cc2)nn1)Oc1c(F)c(F)c(F)c(F)c1F [519 (I-47)], the EC50 [1, 2] is reported as 0.266 nM.

O=C(CCCCCc1cn(CCOCCOCCOCCOCCC(=O)Oc2c(F)c(F)c(F)c(F)c2F)nn1)Nc1ccc(O[C@H]2O[C@H](CCP(=O)(O)O)[C@@H](O)[C@H](O)[C@@H]2O)cc1 [513 (I-39)] gave an EC50 [1, 3] of 0.186 nM.

Work on O=C(CCOCCOCCOCCOCCn1cc(CCCCNC(=S)Nc2ccc(O[C@H]3O[C@H](CC(C(=O)O)C(=O)O)[C@@H](O)[C@H](O)[C@@H]3O)cc2)nn1)Oc1c(F)c(F)c(F)c(F)c1F [537 (I-66)] yielded an EC50 ([1]; additional M6PR binding assays, average loading DAR 8, read-out: EC50 (nM) in M6PR binding assay) of 2.31 nM and an EC50 [1, 3] of 3.36 nM.

O=C(CCOCCOCCOCCOCCOCCOCCOCCOCCn1cc(CCCCNC(=S)Nc2ccc(O[C@H]3O[C@H](CCP(=O)(O)O)[C@@H](O)[C@H](O)[C@@H]3O)cc2)nn1)Oc1c(F)c(F)c(F)c(F)c1F [526 (I-48)] gave an EC50 ([1]; average loading DAR 10, FIG. 23, read-out: EC50 (nM) in M6PR binding assay) of 0.186 nM.

With O=C(CCOCCOCCOCCN(CCOCCOCCOCCn1cc(CCCCNC(=S)Nc2ccc(O[C@H]3O[C@H](CCP(=O)(O)O)[C@@H](O)[C@H](O)[C@@H]3O)cc2)nn1)CCOCCOCCOCCn1cc(CCCCNC(=S)Nc2ccc(O[C@H]3O[C@H](CCP(=O)(O)O)[C@@H](O)[C@H](O)[C@@H]3O)cc2)nn1)NCCN1C(=O)C=CC1=O [706 (I-41)] the EC50 ([1]; additional M6PR binding assays, maleimide-Cys conjugation, read-out: EC50 (nM) in M6PR binding assay) was 0.271 nM.

B1: Compound I-7 (d8): "matuzumab conjugates (matuzumab-Compound I-7(d4), matuzumab-Compound I-7(d8) ..." (conjugate)
heavy: QVQLVQSGAEVKKPGASVKVSCKASGYTFTSHWMHWVRQAPGQGLEWIGEFNPSNGRTNYNEKFKSKATMTVDTSTNTAYMELSSLRSEDTAVYYCASRDYDYAGRYFDYWGQGTLVTVSSASTKGPSVFPLAPSSKSTSGGTAALGCLVKDYFPEPVTVSWNSGALTSGVHTFPAVLQSSGLYSLSSVVTVPSSSLGTQTYICNVNHKPSNTKVDKKVEPKS
light: DIQMTQSPSSLSASVGDRVTITCSASSSVTYMYWYQQKPGKAPKLLIYDTSNLASGVPSRFSGSGSGTDYTFTISSLQPEDIATYYCQQWSSHIFTFGQGTKVEIKRTVAAPSVFIFPPSDEQLKSGTASVVCLLNNFYPREAKVQWKVDNALQSGNSQESVTEQDSKDSTYSLSSTLTLSKADYEKHKVYACEVTHQGLSSPVTKSFNRGE
modifications: left off: a dimerising Fc or GST
For B1, the “binding affinity for M6PR, rank among the conjugates tested” value [1] was “highest”.

B2: Compound I-11 (d4): "matuzumab conjugates (... matuzumab-Compound I-11(d4) ..." (conjugate)
heavy: QVQLVQSGAEVKKPGASVKVSCKASGYTFTSHWMHWVRQAPGQGLEWIGEFNPSNGRTNYNEKFKSKATMTVDTSTNTAYMELSSLRSEDTAVYYCASRDYDYAGRYFDYWGQGTLVTVSSASTKGPSVFPLAPSSKSTSGGTAALGCLVKDYFPEPVTVSWNSGALTSGVHTFPAVLQSSGLYSLSSVVTVPSSSLGTQTYICNVNHKPSNTKVDKKVEPKS
light: DIQMTQSPSSLSASVGDRVTITCSASSSVTYMYWYQQKPGKAPKLLIYDTSNLASGVPSRFSGSGSGTDYTFTISSLQPEDIATYYCQQWSSHIFTFGQGTKVEIKRTVAAPSVFIFPPSDEQLKSGTASVVCLLNNFYPREAKVQWKVDNALQSGNSQESVTEQDSKDSTYSLSSTLTLSKADYEKHKVYACEVTHQGLSSPVTKSFNRGE
modifications: left off: a dimerising Fc or GST
For B2, the “binding affinity for M6PR, rank among the conjugates tested” value [1] was “lowest”.
